Measured values published in patent US6909001B2 (Pharmacia Corporation, priority 2002, dated 2005).

Tests used:
[1] = test system: LPS-induced TNFα production; assay: Lipopolysaccharide (LPS)-Induced TNFα Production (Rat LPS Assay); type: in vivo; settings: at 20 mpk (IP)
[2] = test system: endotoxin-induced shock; settings: murine model of endotoxin-induced shock; cited from earlier work
[3] = test system: collagen-induced arthritis; settings: mouse; cited from earlier work
[4] = test system: adjuvant arthritis; settings: rat; cited from earlier work
[5] = test system: MK-2; settings: cited from earlier work
[6] = test system: granulomas; settings: laboratory rats; cited from earlier work

## N#Cc1c(N)nc2c(c1N)Cc1ccc(OCCN)cc1O2 [Example 12, 2,4-diamino-8-(2-aminoethoxy)-5H-chromeno[2,3-b]pyridine-3-carbonitrile]
[1]
  Rat LPS Assay inhibition: 88%

## C[S+]([O-])c1ccc(-c2nc(-c3ccncc3)c(-c3ccc(F)cc3)[nH]2)cc1 (stereo not drawn) [SB203580]
[2]
  mortality: reduce mortality
[3]
  development of collagen-induced arthritis: inhibit the development
[4]
  development of adjuvant arthritis: inhibit the development
[5]
  inhibition of activation of MK-2: inhibit activation of MK-2

## Nc1nccc(-c2c(-c3ccc(F)cc3)ncn2C2CCNCC2)n1 [SB 220025]
[6]
  vascular density of granulomas: significant dose-dependent decrease in vascular density of granulomas
